Read-outs that look alike come from different tables or passages of the source.
Assays:
[1] = system: MTA (two-spotted spider mite); test: Insect toxicity contact bioassay, MTA; format: in vivo; conditions: for Insect Toxicity LC50, MTA: in vivo
Experimental: (§1) The compound to be evaluated was dissolved in an appropriate solvent, usually a mix of acetone, methanol, and water. Test solutions were made by serial dilution of a stock test solution with acetone, methanol, and water. Initial evaluations were made at one or more concentrations on one or more of the following insects:
(§2) Contact bioassays (green peach aphid, two-spotted spider mite, white fly) were conducted by applying a solution of the test compound to the inside surface of a Petri dish. The solution was allowed to air-dry, then each dish was infested and the larvae from each treatment were transferred to a bioassay tray. The trays were held for one to seven days, and the mortality rating was determined for each treatment.

[2] = system: Tobacco Budworm; test: Insect toxicity bioassay, TBW; format: in vivo; conditions: for Insect Toxicity LC50, TBW: in vivo
Experimental: as §1
(§3) Feeding bioassays were conducted in bioassay trays containing insect diet. Treatments were made by applying 50 μL of test solution to the surface of the diet in each of 5 wells. After the test solution dried, each well was infested with a single neonate larva. The trays were held for six days and then the mortality rating was determined for each treatment.
Some of the tobacco budworm tests were conducted as follows. A test solution containing 600 ppm was made by dissolving a compound of the invention in a 1:1 acetone:methanol solution, then adding water to give a 5:5:90 acetone:methanol:water solution, and finally a surfactant was added at an equivalent of 7.37 g of surfactant per 100 L of test solution (1 ounce of surfactant per 100 gallons of test solution). Appropriate dilutions were prepared in water from the 600 ppm solution. A detached cotton leaf, Gossypium hirsutum was placed on moistened filter paper in a Petri dish (100×20 mms). The leaf was sprayed with the test solution using a rotating turntable sprayer and allowed to dry. The dish was infested with 10 first instar larvae of the tobacco budworm and covered with the lid. If the larvae were alive two days after treatment, fresh untreated cotton leaves were added. All treatments were maintained at 23.9-26.7° C. (75-80° F.) under fluorescent light in a well-ventilated room. Percent mortality was determined at four days after treatment.

[3] = system: WFN (white fly); test: Insect toxicity contact bioassay, WFN; format: in vivo; conditions: for Insect Toxicity LC50, WFN: in vivo
Experimental: as §1, §2

[4] = system: Cabbage Looper; test: Insect toxicity feeding bioassay, CL; format: in vivo; conditions: for Insect Toxicity LC50, CL: in vivo
Experimental: as §1, §3

[5] = system: Beet Armyworm; test: Insect toxicity feeding bioassay, BAW; format: in vivo; conditions: for Insect Toxicity LC50, BAW: in vivo
Experimental: as §1, §3

[6] = target: T1, Bombyx mori EcR (VBE) (Bombyx mori, UniProt P49881); test: Z3 assay: β-galactosidase reporter gene induction in HEK-293 clone Z3 (CVBE / 6XEcRE LacZ); format: cell-based; conditions: for Fold Induction Average, Z3 assay: 33 μM ligand, 48 h, RLU relative to DMSO; for fold induction at 33 µM: HEK293, 48 h, read-out: Fold Induction Average, Z3 assay; for Rel Max FI, Z3 assay: maximum fold induction relative to that of GS-E ligand
T1 construct: expressed in transfected cells; host or cells: Human HEK-293 cells, retrovirally infected, clone Z3
T1 sequence (P49881 86-606 limits assumed): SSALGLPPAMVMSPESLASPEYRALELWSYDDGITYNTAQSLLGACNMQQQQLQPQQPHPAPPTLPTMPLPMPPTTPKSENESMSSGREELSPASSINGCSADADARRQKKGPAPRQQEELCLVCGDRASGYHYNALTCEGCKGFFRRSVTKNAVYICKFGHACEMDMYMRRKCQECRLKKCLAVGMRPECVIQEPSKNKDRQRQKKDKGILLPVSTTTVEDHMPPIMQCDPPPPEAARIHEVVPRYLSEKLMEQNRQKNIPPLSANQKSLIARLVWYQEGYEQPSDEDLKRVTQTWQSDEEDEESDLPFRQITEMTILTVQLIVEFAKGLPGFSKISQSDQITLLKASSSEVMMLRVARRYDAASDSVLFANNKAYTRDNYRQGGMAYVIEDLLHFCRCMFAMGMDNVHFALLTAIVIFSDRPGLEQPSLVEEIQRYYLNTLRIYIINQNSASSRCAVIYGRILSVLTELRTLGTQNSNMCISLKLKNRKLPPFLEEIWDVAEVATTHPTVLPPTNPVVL
T1 sequence (P19793 1-462 partner): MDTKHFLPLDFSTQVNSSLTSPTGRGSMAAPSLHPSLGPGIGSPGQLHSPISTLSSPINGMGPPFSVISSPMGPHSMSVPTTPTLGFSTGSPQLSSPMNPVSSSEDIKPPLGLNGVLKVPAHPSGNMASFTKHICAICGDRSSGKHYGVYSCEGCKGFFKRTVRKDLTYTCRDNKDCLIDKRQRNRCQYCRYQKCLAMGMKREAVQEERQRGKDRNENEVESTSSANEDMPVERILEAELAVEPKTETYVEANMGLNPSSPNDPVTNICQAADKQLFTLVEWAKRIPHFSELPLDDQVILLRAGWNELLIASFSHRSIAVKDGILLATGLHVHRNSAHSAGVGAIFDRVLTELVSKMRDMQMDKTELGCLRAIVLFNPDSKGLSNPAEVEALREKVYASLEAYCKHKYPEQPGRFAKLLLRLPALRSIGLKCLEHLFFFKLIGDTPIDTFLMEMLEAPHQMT

[7] = target: T2, GAL4 DBD-CfEcR(DEF)/VP16AD-MmRXRE (Choristoneura fumiferana, UniProt O77240); test: 13B3 assay: luciferase reporter gene induction in stable CHO clone 13B3; format: cell-based; conditions: for Fold Induction Average, 13B3 assay: 33/33.3 μM ligand, RLU relative to DMSO; for Fold Induction Average, 13B3 assay / fold induction at 33.3 µM: 48 h; for fold induction at 33.3 µM: read-out: Fold Induction Average, 13B3 assay; for Rel Max FI, 13B3 assay: maximum fold induction relative to that of GS-E ligand
T2 construct: The wild-type D, E, and F domains from spruce budworm Choristoneura fumiferana EcR (“CfEcR-DEF”)
In short: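 Stable CHO clone 13B3 co-expressing GAL4 DBD-CfEcR(DEF) and VP16AD-MmRXRE with a GAL4 RE-luciferase reporter; ligands from DMSO stocks diluted 300-fold. Luciferase read by luminescence 48 h after treatment, duplicate wells averaged. Fold induction = RLU treated/RLU DMSO; EC50 from three-parameter logistic fit.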

[8] = target: T3, GAL4 DBD (1-147)-CfEcR(DEF)/VP16AD-βRXREF-LmUSPEF (Choristoneura fumiferana, UniProt O77240); test: cell-based; conditions: for fold induction at 33.3 µM: 48 h, read-out: Fold Induction Average, 27-63 assay; for Rel Max FI, 27-63 assay: maximum fold induction relative to that of GS-E ligand
T3 construct: The wild-type D, E, and F domains from spruce budworm Choristoneura fumiferana EcR (“CfEcR-DEF”)
Experimental: Stably transfected cells were selected by Zeocin resistance. Individually isolated CHO cell clones were transiently transfected with a GAL4 RE-luciferase reporter (pFR Luc). 27-63 clone was selected using Hygromycin.
Cells were trypsinized and diluted to a concentration of 2.5×10^4 cells mL. 100 μL of cell suspension was placed in each well of a 96 well plate and incubated at 37° C. under 5% CO2 for 24 h. Ligand stock solutions were prepared in DMSO and diluted 300 fold for all treatments.
Luciferase reporter gene expression was measured 48 h after cell treatment using Bright-Glo™ Luciferase Assay System from Promega (E2650). Luminescence was detected at room temperature using a Dynex MLX microtiter plate luminometer.
Each assay was conducted in two separate wells, and the two values were averaged. Fold inductions were calculated by dividing relative light units (“RLU”) in ligand treated cells with RLU in DMSO treated cells. EC50s were calculated from dose response data using a three-parameter logistic model.

[9] = target: CfEcR (CDEF)/CfUSP, GST fusion protein (Choristoneura fumiferana, UniProt O77240); test: CfEcR (CDEF)/CfUSP GST fusion protein assay; format: binding
[10] = GST fusion protein, read-out: CfEcR EC50

Chain of CfEcR (CDEF)/CfUSP, GST fusion protein (O77240 entry or part of it): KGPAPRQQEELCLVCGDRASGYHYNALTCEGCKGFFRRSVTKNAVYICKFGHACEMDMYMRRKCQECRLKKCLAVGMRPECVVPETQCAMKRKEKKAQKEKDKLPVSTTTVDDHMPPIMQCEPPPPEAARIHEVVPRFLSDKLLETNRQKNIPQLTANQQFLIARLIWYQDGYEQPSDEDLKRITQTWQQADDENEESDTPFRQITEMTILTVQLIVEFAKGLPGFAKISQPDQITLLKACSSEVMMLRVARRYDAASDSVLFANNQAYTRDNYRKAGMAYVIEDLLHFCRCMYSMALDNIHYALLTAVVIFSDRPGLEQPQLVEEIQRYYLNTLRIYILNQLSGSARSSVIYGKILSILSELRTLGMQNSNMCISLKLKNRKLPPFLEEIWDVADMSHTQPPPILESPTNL
Chain of CfEcR (CDEF)/CfUSP, GST fusion protein (O76202 whole entry, further chain, the tested form may be a part): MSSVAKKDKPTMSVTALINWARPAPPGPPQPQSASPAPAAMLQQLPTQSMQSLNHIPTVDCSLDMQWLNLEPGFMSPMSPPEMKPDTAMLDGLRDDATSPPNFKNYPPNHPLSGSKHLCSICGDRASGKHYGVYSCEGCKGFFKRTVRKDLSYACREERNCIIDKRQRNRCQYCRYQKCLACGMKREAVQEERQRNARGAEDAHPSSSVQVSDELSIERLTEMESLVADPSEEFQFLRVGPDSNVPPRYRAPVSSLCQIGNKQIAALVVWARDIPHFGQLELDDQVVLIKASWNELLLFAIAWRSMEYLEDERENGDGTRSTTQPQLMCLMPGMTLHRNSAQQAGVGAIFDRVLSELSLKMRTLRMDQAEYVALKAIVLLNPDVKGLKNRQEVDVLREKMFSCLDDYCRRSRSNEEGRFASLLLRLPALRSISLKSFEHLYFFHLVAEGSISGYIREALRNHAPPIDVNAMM

Structure (SMILES) | Insect Toxicity % control @ 150 ppm, MTA [1] | Insect Toxicity % control @ 150 ppm, TBW [2] [% @ 150] | Insect Toxicity % control @ 150 ppm, WFN [3] [% @ 150] | Insect Toxicity % control @ 150 ppm, CL [4] [% @ 150] | Insect Toxicity % control @ 150 ppm, BAW [5] [% @ 150] | Fold Induction Average, Z3 assay [6] | fold induction at 33 µM [6] | fold induction at 33.3 µM [7] | also measured
CC1(C)ON=C(c2cccc(C(F)(F)F)c2)N1NC(=O)Nc1ccccc1 [RG-120001] | 0% @ 150 | 0 | 0 | 20 | 80 | 0.3 |  |  | Fold Induction Average, 13B3 assay [7]: 3.3
CCc1ccc(C(=O)NN2C(c3cc(C)cc(C)c3)=NOC2(C)CC)cc1 (stereo not shown) [RG-120128] |  |  |  |  |  |  | 403 | 129 | Insect Toxicity LC50, MTA [1]: >150 ppm; EC50 [8]: ~20 µM; fold induction at 33.3 µM [8]: 338; Rel Max FI, 27-63 assay [8]: 0.18; Insect Toxicity LC50, TBW [2]: >150 ppm; Insect Toxicity LC50, WFN [3]: >150 ppm; EC50 [9]: 0.0285 µM; Insect Toxicity LC50, CL [4]: 17 ppm; Insect Toxicity LC50, BAW [5]: 47 ppm
CCc1c(OC)cccc1C(=O)NN1C(c2ccc(Cl)cc2)=NOC1(C)C [RG-120099] | 0% @ 150 | 0 | 0 | 40 | 100 |  | 0.2 |  | EC50 [8]: ~20 µM; fold induction at 33.3 µM [8]: 1330; Rel Max FI, 27-63 assay [8]: 0.64
Cc1cccc(C(=O)NN2C(c3cc(C)cc(C)c3)=NOC2(C)C)c1 [RG-120077] | 0% @ 150 | 0 | 0 | 100 | 50 | 14.6 |  |  | Fold Induction Average, 13B3 assay [7]: 0.4
Cc1cc(C)cc(C2=NOC3(CCCC3)N2NC(=O)c2cc3ccccc3s2)c1 [RG-120152] |  |  |  |  |  | 59.9 |  |  | CfEcR % @ 1 uM [9]: 92% @ 1 uM; Fold Induction Average, 13B3 assay [7]: 264.3
CCC1(C)ON=C(c2cc(C)cc(C)c2)N1NC(=O)Nc1ccccc1 (stereo not shown) [RG-120051] |  |  |  |  |  |  |  |  | EC50 [9, 10]: 0.147 µM
COc1ccc(C2=NOC(C)(C)N2NC(=O)c2ccccc2)c(OC)c1 [RG-120096] | 74 @ 150% | 0 | 55 | 60 | 0 |  | 0.7 | 0.2 | EC50 [6]: > 50 µM; Rel Max FI, Z3 assay [6]: 0; EC50 [7]: > 33.3 µM; Rel Max FI, 13B3 assay [7]: 0
CCc1ccc(C(=O)NN2C(c3ccc(Cl)cc3)=NOC2(C)C)cc1 [RG-120035] | 0% @ 150 | 0 | 0 | 100 | 40 |  | 9.1 | 1.2 | 
CCC1(C)ON=C(c2cc(C)cc(C)c2)N1NC(=O)c1ccccc1 (stereo not shown) [RG-120039] |  |  |  |  |  |  |  |  | EC50 [9, 10]: 0.203 µM
CCC1(C)ON=C(c2cc(C)cc(C)c2)N1NC(=O)c1cc2ccccc2s1 (stereo not shown) [RG-120161] |  |  |  |  |  |  |  | 59.9 | Insect Toxicity LC50, MTA [1]: 110 ppm; Insect Toxicity LC50, TBW [2]: >150 ppm; Insect Toxicity LC50, WFN [3]: >150 ppm; EC50 [9]: 0.0624 µM; Insect Toxicity LC50, CL [4]: 17 ppm; Insect Toxicity LC50, BAW [5]: 87 ppm; EC50 [6]: 2.14 µM; Rel Max FI, Z3 assay [6]: 0.08; EC50 [7]: 3.46 µM; Rel Max FI, 13B3 assay [7]: 0.14
CCc1ccc(C(=O)NN2C(c3ccccc3OC)=NOC2(C)C)cc1 [RG-120026] | 40% @ 150 | 0 | 0 | 0 | 100 |  | 41.1 | 0.9 | EC50 [8]: > 33 µM; fold induction at 33.3 µM [8]: 8.5; Rel Max FI, 27-63 assay [8]: 0
CCc1c(OC)cccc1C(=O)NN1C(c2cc(C)cc(C)c2)=NOC12CCOCC2 [RG-120008] |  |  |  |  |  | 567.3 |  |  | CfEcR % @ 1 uM [9]: 81% @ 1 uM
CCOC(=O)CCC(=O)NN1C(c2cc(C)cc(C)c2)=NOC1(C)CC (stereo not shown) [RG-120126] | 0% @ 150 | 0 | 79 | 0 | 0 |  | 2.4 | 0.4 | EC50 [9, 10]: 0.136 µM; EC50 [6]: > 50 µM; Rel Max FI, Z3 assay [6]: 0.04; EC50 [7]: > 33.3 µM; Rel Max FI, 13B3 assay [7]: 0
CCc1c(OC)cccc1C(=O)NN1C(c2ccccc2)=NOC12CCCC2 [RG-120092] |  |  |  |  |  |  |  |  | Insect Toxicity LC50, MTA [1]: >150 ppm; EC50 [8]: 7.16 µM; fold induction at 33.3 µM [8]: 2190; Rel Max FI, 27-63 assay [8]: 1.15; Insect Toxicity LC50, TBW [2]: 98 ppm; Insect Toxicity LC50, WFN [3]: >150 ppm; Insect Toxicity LC50, CL [4]: 13 ppm; Insect Toxicity LC50, BAW [5]: 47 ppm
CC1(C)ON=C(c2cccc(C(F)(F)F)c2)N1NC(=O)Cc1ccccc1 [RG-120021] | 51% @ 150 | 0 | 0 | 0 | 100 | 0.7 |  |  | 

Reference: US8669072B2, “Oxadiazoline ligands for modulating the expression of exogenous genes via an ecdysone receptor complex” (Intrexon Corporation, priority 2003, dated 2014)
